Measurements taken from patent US4686220A, “Substituted 2-[b-substituted-amino)-ethylamino]-1,4-naphthalenediones for treating asthma, allergic diseases and inflammation in warm-blooded animals” (American Cyanamid Company, priority 1985, dated 1987).
pIC50: −log10 of the molar value. Counter-ions that a name gives are not always drawn. Like-named read-outs stand apart in the source and are kept apart here.

Columns and labels:
[1] = system: Immunologically Stimulated Human Basophils; test: Inhibition of Histamine Release from Immunologically Stimulated Human Basophils; assay type: cell-based; details: anti-IgE or antigen stimulated, 60 min, 37° C., read-out: ED50 (concentration which causes 50% inhibition of histamine release)
Protocol: The novel compounds of this invention have been tested by the procedure of Lichtenstein, L. M. and Osler, A. G., J. Exp. Med., 120, 507-530 (1964), which evaluates the ability of compounds to inhibit mediator (histamine) release from immunologically stimulated human basophils. 10X Concentrated Tris Buffer Dissolve 140.3 g of sodium chloride, 7.45 g of potassium chloride and 74.5 g of Trizma-Tris Pre-Set, Reagent Grade, pH 7.6, at 25° C. (Sigma Chemical Co.) in sufficient water to give a final volume of 2 liters. Human Albumin (Sigma Chemical Co.) (30 mg/ml) Calcium and Magnesium Stocks Made to 0.075M and 0.5M respectively, with calcium chloride dihydrate and magnesium chloride hexahydrate. Tris-A Buffer A 10 ml portion of 10X Tris Buffer and 1.0 ml of human albumin are diluted to 100 ml with water. Tris ACM Buffer A 10 ml portion of 10X Tris Buffer, 1.0 ml of human albumin, 0.8 ml of calcium stock and 0.2 ml of magnesium stock are diluted to 100 ml with water. Rabbit Antihuman IgE Behring Diagnostics (Generally used at 10 μg protein/ml final concentration.) House Dust Mite Extract (Dermatophagoides Farinae) Strength 1:100 (w:v) allergenic extract, Hollister-Stier Labs. Generally this is diluted 1:1000 to 1:10,000 (considering the vial as stock). Other Allergens Intradermal solutions or intramuscular preparations for hyposensitization, Hollister-Stier Labs. The final concentration used is on the order of 1 PNU/ml. Separation of Leukocytes from Human Blood and Challenge Eighty milliliters of blood is withdrawn from subjects with known histamine release to anti-IgE, ragweed antigen or other specific allergen, using four 20 ml heparinized tubes. This 80 ml of blood is mixed with 20 ml of saline containing 0.6 g of dextrose and 1.2 g of dextran. The blood is allowed to sediment at room temperature in two 50 ml polycarbonate centrifuge tubes until a sharp interface develops between the red cells and plasma (60-90 minutes). The plasma (top) layer from each tube is withdrawn by pipet and transferred to respective 50 ml polycarbonate tubes. The plasma is centrifuged for 8 minutes at 110×G at 4° C. The supernatant is carefully poured off as completely as possible and the cell button is resuspended in 2-3 ml of Tris-A buffer using a siliconized Pasteur pipet. The resuspension is accomplished by drawing the liquid gently in an out of the pipet, with the tip below the liquid, until an even suspension of cells is obtained. Sufficient Tris-A buffer is then added to bring the volume in the tube to about 45 ml and the tube is centrifuged at 110×G for 8 minutes at 4° C. The supernatant is poured off and the cell button is resuspended and centrifuged as described above. The supernatant is poured off and the cell button suspended in 2-3 ml of Tris-ACM buffer to make the final volume sufficient to allow addition to the reaction tubes. Reaction tubes containing anti-IgE or antigens, either alone or with test compound in a total volume of 0.2 ml are prepared and placed in a 37° C. bath. The cells are warmed to 37° C. and frequently swirled to ensure an even suspension, while 1.0 ml aliquots are added to each reaction tube. The tubes are then incubated for 60 minutes at 37° C., vortexing the tubes gently every 15 minutes to keep the cells evenly suspended. When the reaction is complete, the tubes are centrifuged at 4° C. for 10 minutes at 1500 rpm to sediment the cells. One ml aliquots of supernatant are transferred to 12 mm by 75 mm polyethylene tubes and 0.2 ml of 8% perchloric acid is added to each tube. Blanks and totals are included in each test. The blanks have cells and all reagents except antigen or anti-IgE. The totals contain 0.24 ml of 8% perchloric acid, one ml of cells and 0.2 ml of buffer. All samples are then centrifuged to remove the precipitate protein. Assay of Released Histamine by the Automated Fluorometric Method This automated method has been described by Siraganian, R. P., in Anal. Biochem., 57, 383 (1974) and J. Immunol. […]

Neutrophil Lipoxygenase = biological target: T1, Neutrophil Lipoxygenase (Cavia porcellus, UniProt A0A286X958); test: Inhibition of Neutrophil Lipoxygenase from Immunologically Stimulated Guinea Pig Neutrophiles (LTB4 and 5-HETE); assay type: cell-based; details: 10 μg/ml, 100 μM arachidonic acid and 20 μM A23187, the lower the percentage, the more active
T1 construct: endogenous in cells; host or cells: guinea pig peritoneal neutrophils
T1 sequence (A0A286X958 1-674): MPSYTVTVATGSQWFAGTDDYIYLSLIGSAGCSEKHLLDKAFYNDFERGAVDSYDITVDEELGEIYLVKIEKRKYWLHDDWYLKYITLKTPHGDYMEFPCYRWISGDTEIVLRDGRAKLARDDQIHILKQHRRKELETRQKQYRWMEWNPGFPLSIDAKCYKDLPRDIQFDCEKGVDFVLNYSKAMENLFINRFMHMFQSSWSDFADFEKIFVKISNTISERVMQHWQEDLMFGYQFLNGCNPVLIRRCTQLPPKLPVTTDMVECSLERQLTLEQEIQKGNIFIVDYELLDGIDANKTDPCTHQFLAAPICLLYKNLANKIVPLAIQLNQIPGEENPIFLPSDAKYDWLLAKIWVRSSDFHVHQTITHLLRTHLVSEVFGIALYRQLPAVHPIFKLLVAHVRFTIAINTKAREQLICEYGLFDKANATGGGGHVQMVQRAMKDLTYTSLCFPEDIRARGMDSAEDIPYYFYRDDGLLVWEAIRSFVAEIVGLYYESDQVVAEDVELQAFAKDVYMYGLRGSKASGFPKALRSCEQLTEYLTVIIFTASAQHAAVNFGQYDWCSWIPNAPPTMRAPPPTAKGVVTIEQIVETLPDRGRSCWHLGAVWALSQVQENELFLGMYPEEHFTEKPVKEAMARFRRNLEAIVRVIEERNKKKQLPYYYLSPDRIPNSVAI
Protocol: In this assay 3×10^7 peritoneal neutrophils derived from guinea pigs were incubated at 37° C. in Dulbeccos buffer containing 50 mM tris buffer (pH 7.4). Five minutes before the addition of 100 μM arachidonic acid and 20 μM calcium ionophore (A23187), control vehicle or the test compounds were added to the neutrophils at a concentration of 10 μg/ml. Three minutes after the addition of arachidonic acid and calcium ionophore the total lipid was partitioned into chloroform after adjusting the pH to 3 with citric acid and the addition of equal parts of methanol and chloroform. The 5-HETE and LTB4 were resolved by HPLC using a 5 μM, 4×25 cm octadecyl silica column (IBM Instruments) with 70-80% methanol in water adjusted to pH 3.0 with acetic acid. As the mobile phase was pumped at 1.0 ml/minute, LTB4 and 5-HETE were detected by absorbance at 270 and 236 nm, respectively. LTB4 and 5-HETE were quantitated by comparison with the control and the results were expressed as a percent of control.

Row | Structure (SMILES) | 5-HETE, % of Control (Neutrophil Lipoxygenase) | LTB4, % of Control (Neutrophil Lipoxygenase) | pIC50 ([1]; Homo sapiens, 1 h) | remaining activity at 10 µg/mL (Neutrophil Lipoxygenase; read-out: 5-HETE, % of Control) [%] | remaining activity at 10 µg/mL (Neutrophil Lipoxygenase; read-out: LTB4, % of Control) [%] | also measured
1 | CN(CCN(C)C1=C(Cl)C(=O)c2ccccc2C1=O)Cc1ccccc1 [Example 2, 2-Chloro-3-[methyl[2-[methyl(phenylmethyl)amino]ethyl]amino]-1,4-naphthalenedione, hydrochloride] |  |  | 5.40 |  |  | 
2 | O=C1C(Cl)=C(N2CCN(CC(=O)N3CCOCC3)CC2)C(=O)c2ccccc21 [Example 6, 4-[[4-(3-chloro-1,4-dihydro-1,4-dioxo-2-naphthalenyl)-1-piperazinyl]acetyl]morpholine] |  |  | 4.69 |  |  | 
3 | O=C1C(Cl)=C(N2CCN(CC(=O)N3CCCC3)CC2)C(=O)c2ccccc21 [Example 7, 1-[[4-(3-chloro-1,4-dihydro-1,4-dioxo-2-naphthalenyl)-1-piperazinyl]acetyl]pyrrolidine] |  |  | 4.83 |  |  | 
4 | O=C1C(Cl)=C(N2CCN(c3ccccn3)CC2)C(=O)c2ccccc21 [Example 8, 2-chloro-3-[4-(2-pyridinyl)-1-piperazinyl]-1,4-naphthalenedione, hydrochloride] |  |  | 5.34 | 1.3 | 6.1 | 
5 | CN(CCNCc1nc2ccccc2s1)C1=C(Cl)C(=O)c2ccccc2C1=O [Example 9, 2-[[2-(2-benzothiazolylmethylamino)ethyl]methylamino]-3-chloro-1,4-naphthalenedione] |  |  | 5.19 | 0.2 | 0 | 
6 | CC1CN(C2=C(Cl)C(=O)c3ccccc3C2=O)CCN1 (centres unmarked) [Example 14, 2-chloro-3-(3-methyl-1-piperazinyl)-1,4-naphthalenedione] |  |  | 5.52 |  |  | 
7 | CCOC(=O)N1CCN(C2=C(Cl)C(=O)c3ccccc3C2=O)CC1.Cl [Example 16, 4-(3-chloro-1,4-dihydro-1,4-dioxo-2-naphthalenyl)-1-piperazinecarboxylic acid, ethyl ester, hydrochloride] | 6.9 % of Control | 9.3 % of Control |  |  |  | pIC50 ([1]; e, hydrochloride): 5.82
8 | O=C1C(Cl)=C(N2CCN(c3nc4ccccc4s3)CC2)C(=O)c2ccccc21 [Example 17, 2-[4-(2-benzothiazolyl)-1-piperazinyl]-3-chloro-1,4-naphthalenedione, hydrochloride] |  |  | 5.27 | 23.1 | 32.6 | 

Now from value to compound, other results behind:

Row | 5-HETE, % of Control (Neutrophil Lipoxygenase) | LTB4, % of Control (Neutrophil Lipoxygenase) | pIC50 ([1]; Homo sapiens, 1 h) | remaining activity at 10 µg/mL (Neutrophil Lipoxygenase; read-out: 5-HETE, % of Control) [%] | remaining activity at 10 µg/mL (Neutrophil Lipoxygenase; read-out: LTB4, % of Control) [%] | Structure (SMILES) | also measured
9 | 0 % of Control | 0 % of Control |  |  |  | CCOC(=O)N1CCN(C2=C(Cl)C(=O)c3ccccc3C2=O)CC1 [Example 1, 4-(3-Chloro-1,4-dioxo-2-naphthyl)-1-piperazinecarboxylic acid, ethyl ester] | pIC50 ([1]; ethyl ester): 5.26
10 | 0 % of Control | 0 % of Control | 4.98 |  |  | O=C1C(Cl)=C(N2CCN(Cc3ccccc3)CC2)C(=O)c2ccccc21 [Example 5, 2-chloro-3-[4-(phenylmethyl)-1-piperazinyl]-1,4-naphthalenedione] | 
11 | 35.6 % of Control | 28.3 % of Control |  |  |  | Cl.O=C1C(Cl)=C(N2CCN(Cc3ccccc3)CC2)C(=O)c2ccccc21 [Example 15, 2-chloro-3-[4-(phenylmethyl)-1-piperazinyl]-1,4-naphthalenedione, hydrochloride] | pIC50 ([1]; hydrochloride): 4.87
12 |  |  | 4.78 | 31.6 | 27.4 | CC(C)COC(=O)N1CCN(C2=C(Cl)C(=O)c3ccccc3C2=O)CC1 [Example 33, 4-(3-Chloro-1,4-dihydro-1,4-dioxo-2-naphthalenyl)-1-piperazinecarboxylic acid, 2-methylpropyl ester] | 
13 |  |  | 5.74 |  |  | O=C1C(Cl)=C(N2CCN(C(=O)c3ccccc3Cl)CC2)C(=O)c2ccccc21 [Example 34, 1-(2-chlorobenzoyl)-4-(3-chloro-1,4-dihydro-1,4-dioxo-2-naphthalenyl)piperazine] | 
